Test results as given in article PMC4298654, “In vivo formation of N-acyl-fumonisin B1” (Mycotoxin Research, 2014).

Test: In vivo formation of NAFB1 and NAHFB1 in rat kidney and liver (HPLC-ESI-MS/MS)
Set-up: N-acyl-derivative in tissue sample, analysis a / N-acyl-derivative in tissue sample, analysis b / N-acyl-derivative in tissue sample, mean: unit not given here
Conditions: 5 days
Excerpt: The study protocol was approved by the Institutional Animal Care and Use Committee, Richard B. Russell Agricultural Research Center, Athens, GA. Male Sprague–Dawley rats (Harlan Industries, Indianapolis, IN, USA), 7 weeks of age at receipt, were individually housed in stainless steel, wire mesh cages in an environmentally controlled room having a 12-h light/dark cycle. Food (2019 Global Rodent Diet, Teklad, Madison, WI, USA) and fresh tap water were provided ad libitum. After a 1 week acclimation period, the animals were randomly assigned to five groups (n = 2/group) having mean weights of 215 to 216 g (weight range of all animals, 211 to 220 g). For five consecutive days, they were observed, weighed, and given an intraperitoneal injection (ip) of 0 (vehicle), 0.5, 1.0, or 2.0 mg/kg body weight FB1 (provided by R. Eppley, US FDA), 1.0 mg/kg body weight HFB1 (positive control) (Voss et al. [2009]), or vehicle (0.9 % physiological saline). These doses corresponded to 0.69, 1.38, and 2.77 μmol FB1/kg body weight and 2.47 μmol/kg body weight HFB1 per day. In order to compare the effects of FB1 and HFB1, dosages will be expressed as molar concentrations and, on this basis, the high dose of FB1 is roughly equivalent to that of the positive control dose of HFB1. Dosing solutions were sterile filtered and administered at a volume rate of 10 ml/kg body weight. The animals were fasted overnight prior to administration of the final dose. The rats were euthanized (CO2 inhalation and exsanguination) 60 to 90 min following the final dose administration and examined by necropsy. The kidney and liver specimens were fixed in 10 % neutral buffered formalin, processed, and microscopically evaluated without knowledge of the animal’s identity or treatment group. Three representative liver and kidney specimens (100 mg each) were also collected, immediately frozen, and stored (−80 °C) until processed, at which time the tissues were thawed and homogenized in distilled/deionized water (1 ml water/100 mg tissue). The homogenates were lyophilized before they were shipped by overnight courier for the analysis of fumonisin metabolites and sphingolipids.
Lyophilized liver and kidney tissues (100 mg wet weight equivalents) were processed for the quantification of FB1, HFB1, NAFB1, NAHFB1, and sphingolipids. Preparation of the tissue samples was performed according to a previously published method (Harrer et al. [2013]). For the quantification of FB1 and HFB1, a d6-labeled derivative of FB1 (FB1-d6) was used as the internal standard. Synthetic derivatives with a heptadecanoic fatty acid (C17:0) residue were used as internal standards for the quantification of N-acyl-fumonisins and ceramides (N-C17:0-FB1, N-C17:0-HFB1, and N-C17:0-ceramide). The sphingoid bases and their phosphate derivatives were quantified using synthetic derivatives with a C17-acyl-backbone: sphingosine (C17:1), sphingosine-1-phosphate (C17:1), sphinganine (C17:0), sphinganine-1-phosphate (C17:0) as internal standards. The standards were dissolved in methanol:chloroform (2:1, v/v) and then mixed with the tissue samples. The samples spiked with internal standard were kept at room temperature for 30 min before being processed further. The internal standard-spiked samples were first extracted with ethyl acetate, isopropanol, and water (60:30:10, v/v/v) and a second time using methanol, chloroform, and water (60:30:10, v/v/v). The extracts were combined, the solvents removed by evaporation, and the dried samples stored at−80 °C till analyzed.
For the analysis, the samples were reconstituted in a mixture of water, methanol, and tetrahydrofurane (60:24:16, v/v/v). The NAFB1 and NAHFB1 derivatives having the following fatty acyl chain lengths were quantified by HPLC-MS/MS: C16:0, C18:0, C20:0, C22:0, C24:0, C26:0. Furthermore, we also quantified the unsaturated derivatives C24:1 and C26:1. The results are given as the sum of all N-acyl derivatives of FB1 or HFB1. […]

[1] = Kidney, treatment FB1 0,5 mg/kg BW ip
[2] = Kidney, treatment FB1 1 mg/kg BW ip
[3] = Kidney, treatment FB1 2 mg/kg BW ip
[4] = Kidney, treatment HFB1 1 mg/kg BW ip
[5] = Liver, treatment FB1 0,5 mg/kg BW ip
[6] = Liver, treatment FB1 1 mg/kg BW ip
[7] = Liver, treatment FB1 2 mg/kg BW ip
[8] = Liver, treatment HFB1 1 mg/kg BW ip

## CCCCCCCCCCCCCCCCCCCCCC(=O)NC(C)C(O)CC(O)CCCCC(O)CC(C)CC(OC(=O)CC(CC(=O)O)C(=O)O)C(OC(=O)CC(CC(=O)O)C(=O)O)C(C)CCCC (stereo not drawn) [FB1C22:0]
[1]
  N-acyl-derivative in tissue sample, analysis a: 0,7
  N-acyl-derivative in tissue sample, analysis b: 0,7
  N-acyl-derivative in tissue sample, mean: 0,7
[2]
  N-acyl-derivative in tissue sample, analysis a: 0,9
  N-acyl-derivative in tissue sample, analysis b: 0,6
  N-acyl-derivative in tissue sample, mean: 0,7
[3]
  N-acyl-derivative in tissue sample, analysis a: 0,9
  N-acyl-derivative in tissue sample, analysis b: 1,4
  N-acyl-derivative in tissue sample, mean: 1,2
[4]
  N-acyl-derivative in tissue sample, analysis a: 0,0
  N-acyl-derivative in tissue sample, analysis b: 0,0
  N-acyl-derivative in tissue sample, mean: 0,0
[5]
  N-acyl-derivative in tissue sample, analysis a: 2,9
  N-acyl-derivative in tissue sample, analysis b: 6,4
  N-acyl-derivative in tissue sample, mean: 4,7
[6]
  N-acyl-derivative in tissue sample, analysis a: 1,2
  N-acyl-derivative in tissue sample, analysis b: 4,0
  N-acyl-derivative in tissue sample, mean: 2,6
[7]
  N-acyl-derivative in tissue sample, analysis a: 2,9
  N-acyl-derivative in tissue sample, analysis b: 4,6
  N-acyl-derivative in tissue sample, mean: 3,8
[8]
  N-acyl-derivative in tissue sample, analysis a: 0,0
  N-acyl-derivative in tissue sample, analysis b: 0,0
  N-acyl-derivative in tissue sample, mean: 0,0

## CCCCCCCCCCCCCCCCCCCCCCCC(=O)NC(C)C(O)CC(O)CCCCC(O)CC(C)CC(OC(=O)CC(CC(=O)O)C(=O)O)C(OC(=O)CC(CC(=O)O)C(=O)O)C(C)CCCC (stereo not drawn) [FB1C24:0]
[2]
  N-acyl-derivative in tissue sample, analysis a: 3,0
  N-acyl-derivative in tissue sample, analysis b: 2,4
  N-acyl-derivative in tissue sample, mean: 2,7
[3]
  N-acyl-derivative in tissue sample, analysis a: 5,0
  N-acyl-derivative in tissue sample, analysis b: 4,4
  N-acyl-derivative in tissue sample, mean: 4,7
[4]
  N-acyl-derivative in tissue sample, analysis a: 0,0
  N-acyl-derivative in tissue sample, analysis b: 0,0
  N-acyl-derivative in tissue sample, mean: 0,0
[5]
  N-acyl-derivative in tissue sample, analysis a: 11,7
  N-acyl-derivative in tissue sample, analysis b: 12,3
  N-acyl-derivative in tissue sample, mean: 12,0
[6]
  N-acyl-derivative in tissue sample, analysis a: 2,1
  N-acyl-derivative in tissue sample, analysis b: 7,3
  N-acyl-derivative in tissue sample, mean: 4,7
[7]
  N-acyl-derivative in tissue sample, analysis a: 9,0
  N-acyl-derivative in tissue sample, analysis b: 17,6
  N-acyl-derivative in tissue sample, mean: 13,3
[8]
  N-acyl-derivative in tissue sample, analysis a: 0,0
  N-acyl-derivative in tissue sample, analysis b: 0,0
  N-acyl-derivative in tissue sample, mean: 0,0

## CCCCCCCCC=CCCCCCCCCCCCCCC(=O)NC(C)C(O)CC(O)CCCCC(O)CC(C)CC(OC(=O)CC(CC(=O)O)C(=O)O)C(OC(=O)CC(CC(=O)O)C(=O)O)C(C)CCCC (stereo not drawn) [FB1C24:1]
[1]
  N-acyl-derivative in tissue sample, analysis a: 3,6
  N-acyl-derivative in tissue sample, analysis b: 3,5
  N-acyl-derivative in tissue sample, mean: 3,6
[2]
  N-acyl-derivative in tissue sample, analysis a: 4,1
  N-acyl-derivative in tissue sample, analysis b: 4,6
  N-acyl-derivative in tissue sample, mean: 4,3
[3]
  N-acyl-derivative in tissue sample, analysis a: 5,7
  N-acyl-derivative in tissue sample, analysis b: 4,2
  N-acyl-derivative in tissue sample, mean: 4,9
[4]
  N-acyl-derivative in tissue sample, analysis a: 0,0
  N-acyl-derivative in tissue sample, analysis b: 0,0
  N-acyl-derivative in tissue sample, mean: 0,0
[5]
  N-acyl-derivative in tissue sample, analysis a: 9,2
  N-acyl-derivative in tissue sample, analysis b: 11,8
  N-acyl-derivative in tissue sample, mean: 10,5
[6]
  N-acyl-derivative in tissue sample, analysis a: 3,4
  N-acyl-derivative in tissue sample, analysis b: 6,3
  N-acyl-derivative in tissue sample, mean: 4,9
[7]
  N-acyl-derivative in tissue sample, analysis a: 9,0
  N-acyl-derivative in tissue sample, analysis b: 11,1
  N-acyl-derivative in tissue sample, mean: 10,1
[8]
  N-acyl-derivative in tissue sample, analysis a: 0,0
  N-acyl-derivative in tissue sample, analysis b: 0,0
  N-acyl-derivative in tissue sample, mean: 0,0
